Laboratory results as given in PubChem BioAssay AID1117276 (Broad Institute, 2014).
Records with an inconclusive call do not appear. Active and inactive are the calls of the source. No rule for the calls is given here.

Tested on: orthopoxvirus-infected cells, imaging factory/early/late reporters
Assay: orthopoxvirus gene expression and factory formation inhibitors, imaging, low MOI, factory DAPI readout, single point, dry powder (AID 1117276)
Settings: at 10 µM; stronger effect = higher value

C[C@@H](O)C#Cc1ccc2c(c1)O[C@@H](CN(C)Cc1ccc(-c3ccccc3)cc1)[C@@H](C)CN([C@@H](C)CO)S2(=O)=O
activity score, factory formation (DAPI): 36 (inactive)
